Experimental data published in ChEMBL document CHEMBL1764960, “Stereochemical investigations of isochromenones and isobenzofuranones isolated from Leptosphaeria sp. KTC 727” (J Nat Prod, 2011).
≈ marks a conversion by molar mass, not a printed value.

Tested on: Bipolaris oryzae
Experiment: Antifungal activity against Cochliobolus miyabeanus assessed as hyphal growth inhibition after 36 hrs
Assay type: functional, organism-based

Going from `COc1cc(O)c2c(c1C)[C@](C)(C(C)=O)OC2=O` to `COc1cc(O)c2c(c1C)[C@](C)([C@H](C)O)OC2=O`, the IC50 rises from 10 µg/mL (≈ 40 µM) to 500 µg/mL (≈ 1980 µM) (50-fold).

Compared with `C=C1OC(=O)c2c(O)cc(O)c(C)c2[C@@]1(C)O`, `C=C1OC(=O)c2c(O)cc(OC)c(C)c2[C@@]1(C)O` is 20-fold lower in IC50: 10 µg/mL (≈ 42.3 µM) for the first, 0.5 µg/mL (≈ 2 µM) for the second.
